Experimental data from patent publication US7973164B2, “Quinoline derivatives” (AstraZeneca AB, priority 2006, dated 2011).

Assays:
[1] = tested on: human glioblastoma lines U343 and U87; conditions: U343 and U87 injected into the brains of nude mice; Cancer Research 2000; cited from earlier work
[2] = tested on: dermatofibrosarcoma protruberans cell cultures; conditions: Cancer Research 2001; cited from earlier work
PDGF receptor kinase = conditions: literature (Nature Reviews 2002; Cancer Research 1996); cited from earlier work
PDGFRβ = molecular target: T1, PDGFRβ (Homo sapiens, UniProt P09619); assay: Test (b) in vitro phospho-Tyr751 PDGFRβ ELISA assay in MG63 osteosarcoma cells; assay type: cell-based; conditions: MG63 osteosarcoma cells stimulated with PDGFBB, read-out: IC50 versus phospho-Tyr751 formation in PDGFRβ
T1 construct: endogenous in cells; host or cells: MG63 osteosarcoma cells (ATCC)
T1 sequence (P09619 33-1106): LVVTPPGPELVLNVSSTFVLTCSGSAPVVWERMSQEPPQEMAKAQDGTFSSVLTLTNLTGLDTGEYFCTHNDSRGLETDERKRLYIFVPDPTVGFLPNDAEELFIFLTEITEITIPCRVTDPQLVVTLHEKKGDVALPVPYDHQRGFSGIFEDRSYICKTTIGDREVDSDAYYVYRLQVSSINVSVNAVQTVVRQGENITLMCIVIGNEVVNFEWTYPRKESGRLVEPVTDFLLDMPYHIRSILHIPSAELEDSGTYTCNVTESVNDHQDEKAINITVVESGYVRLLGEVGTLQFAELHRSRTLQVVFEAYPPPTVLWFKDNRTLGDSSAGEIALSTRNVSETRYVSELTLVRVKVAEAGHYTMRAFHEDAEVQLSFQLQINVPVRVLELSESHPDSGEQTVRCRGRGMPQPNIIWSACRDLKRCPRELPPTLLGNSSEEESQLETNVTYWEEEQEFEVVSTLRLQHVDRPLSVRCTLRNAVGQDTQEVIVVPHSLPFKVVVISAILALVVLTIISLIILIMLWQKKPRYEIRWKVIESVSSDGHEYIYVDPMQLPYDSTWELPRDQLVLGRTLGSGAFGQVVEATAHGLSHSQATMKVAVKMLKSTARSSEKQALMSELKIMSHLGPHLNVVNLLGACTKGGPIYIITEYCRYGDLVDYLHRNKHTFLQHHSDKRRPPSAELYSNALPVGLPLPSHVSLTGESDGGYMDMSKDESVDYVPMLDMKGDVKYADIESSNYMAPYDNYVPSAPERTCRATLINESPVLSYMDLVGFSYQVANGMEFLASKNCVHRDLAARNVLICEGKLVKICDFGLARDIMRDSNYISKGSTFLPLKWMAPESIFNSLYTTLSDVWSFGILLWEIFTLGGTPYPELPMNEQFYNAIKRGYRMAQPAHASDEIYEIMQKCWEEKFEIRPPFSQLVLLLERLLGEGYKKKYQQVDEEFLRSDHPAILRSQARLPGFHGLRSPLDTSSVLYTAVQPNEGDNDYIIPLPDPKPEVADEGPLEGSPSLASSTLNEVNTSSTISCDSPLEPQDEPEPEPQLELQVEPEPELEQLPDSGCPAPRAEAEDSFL
Protocol: (b) In Vitro Phospho-Tyr751 PDGFRβ ELISA Assay
This assay uses a conventional ELISA method to determine the ability of test compounds to inhibit phosphorylation of tyrosine in PDGFRβ.
Aliquots (100 μl) of culture media were placed in the outer wells to minimise edge effects. The cells were incubated overnight at 37° C. with 7.5% CO2 to allow the cells to adhere to the wells.
Aliquots (3 μl) of each compound concentration were added to test medium (300 μl) to create a second dilution range. Aliquots (16 μl) of each resultant compound concentration were added to the cells in each well. “Maximum” control cells received a dilution of DMSO plus test medium only. “Minimum” control cells received a reference PDGFR inhibitor (16 μl). The cells were incubated for 90 minutes at 37° C. with 7.5% CO2.
The resultant cells were stimulated with PDGFBB using the following procedure. A lyophilised powder of PDGFBB, (Sigma-Aldrich; Catalogue No. P4306) was mixed with sterile water to provide a stock solution of 10 μg/ml of PDGFBB. […] Aliquots thereof (44 μl) were added to compound treated cells and to the “Maximum” control cells. The “Minimum” control cells received medium only. The cells were incubated at 37° C. with 7.5% CO2 for 5 minutes. […] The resultant tissue culture plates were shaken for 5 minutes at ambient temperature to ensure full lysis and then frozen at −20° C. until required.
Aliquots (50 μl) were added to each well and the plates were placed at 4° C. for 16 hours. The wells were washed 5 times (1 minute soak each time) with 300 μl per well of PBST. The wells were treated with 50 μl of 3% BSA in PBST at ambient temperature for 1 hour and subsequently washed twice with 300 μl per well of PBST.
The tissue culture plates with frozen cell lysate were allowed to warm to 0° C. Aliquots (50 μl) of the MG63 cell lysate were added to the ELISA plates. Each sample was duplicated on separate plates. The ELISA plates were agitated at ambient temperature for 2 hours. The wells were washed twice with 300 μl per well of PBST. […] Aliquots (50 μl) of the antibody solutions were added to each of the wells. The plates were agitated at ambient temperature for 1 hour. The plates were washed twice with 300 μl per well of PBST. […] Aliquots (50 μl) of the resultant dilution were added to each well and the plates were agitated at ambient temperature for 1 hour. The plates were washed 5 times with 300 μl per well of PBST. […] Aliquots (50 μl) of chemiluminescent substrate solution were added to each of the wells, the plates were agitated for 2 minutes and luminescence was read on a SpectraFluor Plus plate reader (Tecan UK Ltd., Reading, Berkshire, UK). Analysis for each of the compounds was completed by determining a ratio of the ‘phospho antibody’ plate reading to the ‘total antibody’ plate reading for each test sample and these ratios were plotted to determine the IC50 value of each test compound.

KDR (VEGFR2) = molecular target: T2, KDR (VEGFR2) (Homo sapiens, UniProt P35968); assay: Test (c) in vitro phospho-KDR ELISA assay in HUVECs; assay type: cell-based; conditions: HUVECs stimulated with VEGF, read-out: IC50 versus phospho-tyrosine formation in KDR
T2 construct: phosphorylation of KDR expressed in human umbilical vein endothelial cells (HUVECs); host or cells: HUVECs
T2 sequence (P35968 20-1356): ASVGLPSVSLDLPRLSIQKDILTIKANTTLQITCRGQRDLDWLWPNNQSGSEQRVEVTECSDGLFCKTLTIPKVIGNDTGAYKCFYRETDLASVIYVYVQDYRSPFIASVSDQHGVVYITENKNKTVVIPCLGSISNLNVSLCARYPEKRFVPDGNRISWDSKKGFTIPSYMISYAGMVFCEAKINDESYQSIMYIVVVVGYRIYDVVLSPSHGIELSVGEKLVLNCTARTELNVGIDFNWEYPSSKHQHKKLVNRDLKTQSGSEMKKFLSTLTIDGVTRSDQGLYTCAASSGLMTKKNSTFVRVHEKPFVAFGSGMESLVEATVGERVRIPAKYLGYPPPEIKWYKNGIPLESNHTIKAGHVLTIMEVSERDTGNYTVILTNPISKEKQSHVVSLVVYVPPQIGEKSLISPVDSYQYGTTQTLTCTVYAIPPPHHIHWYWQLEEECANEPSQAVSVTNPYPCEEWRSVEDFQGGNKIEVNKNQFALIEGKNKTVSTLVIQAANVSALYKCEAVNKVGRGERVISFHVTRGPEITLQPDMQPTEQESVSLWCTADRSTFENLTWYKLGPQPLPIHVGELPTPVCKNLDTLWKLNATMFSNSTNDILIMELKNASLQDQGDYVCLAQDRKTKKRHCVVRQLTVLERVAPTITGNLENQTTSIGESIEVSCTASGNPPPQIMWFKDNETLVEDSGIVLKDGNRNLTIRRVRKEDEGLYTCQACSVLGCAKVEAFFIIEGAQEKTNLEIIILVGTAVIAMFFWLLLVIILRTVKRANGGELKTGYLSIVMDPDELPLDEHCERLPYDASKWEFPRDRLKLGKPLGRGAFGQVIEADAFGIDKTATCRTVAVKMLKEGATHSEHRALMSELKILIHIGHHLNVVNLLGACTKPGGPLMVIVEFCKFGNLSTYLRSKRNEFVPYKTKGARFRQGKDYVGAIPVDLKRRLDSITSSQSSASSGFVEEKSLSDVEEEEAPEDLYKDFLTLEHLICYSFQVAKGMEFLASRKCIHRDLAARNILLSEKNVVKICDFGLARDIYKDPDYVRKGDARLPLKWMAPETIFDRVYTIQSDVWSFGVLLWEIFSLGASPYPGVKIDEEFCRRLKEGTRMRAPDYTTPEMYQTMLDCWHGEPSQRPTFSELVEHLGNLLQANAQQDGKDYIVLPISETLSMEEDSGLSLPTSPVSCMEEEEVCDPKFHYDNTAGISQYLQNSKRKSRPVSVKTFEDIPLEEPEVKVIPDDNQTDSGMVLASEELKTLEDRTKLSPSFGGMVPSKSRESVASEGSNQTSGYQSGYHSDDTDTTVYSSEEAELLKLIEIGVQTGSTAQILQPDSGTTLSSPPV
Protocol: (c) In Vitro Phospho-KDR ELISA Assay
This assay uses a conventional ELISA method to determine the ability of test compounds to inhibit phosphorylation of tyrosine in KDR (VEGFR2).
The cells were incubated overnight at 37° C. with 7.5% CO2 to allow adherence to the well surface. […] The plates were incubated at 37° C. for 2.5 hours.
Test compounds were prepared as 10 mM stock solutions in DMSO and serially diluted with DMSO as required. Aliquots (3 μl) of each concentration of test compound were diluted with ‘serum fiee medium’ (300 μl). Aliquots (50 μl) of each resultant compound concentration were added to the cells in each well. […] The cells were incubated for 90 minutes at 37° C. with 7.5% CO2.
The resultant cells were stimulated with VEGF using the following procedure. A lyopliilised powder of VEGF (Sigma-Aldrich; Catalogue No. V7259) was mixed with PBS containing 0.1% filter-sterilised BSA (0.1% BSA/PBS) to provide a stock solution of 10 μg/ml of VEGF. A dilution of this stock solution into ‘serum free medium’ provided a 1000 ng/ml VEGF solution. Aliquots thereof (50 μl) were added to all wells. The cells were incubated at 37° C. with 7.5% CO2 for 5 minutes. […] The resultant tissue culture plates were shaken for 5 minutes at ambient temperature to ensure full lysis before being frozen on dry-ice and stored at −20° C. until required.
The antibody was diluted in PBS to a concentration of 8 μg/ml, aliquots (100 μl) were added to each well and the plates were stored at ambient temperature for 16 hours. The wells were washed 3 times (1 minute soak each time) with 300 μl per well of PBST. The wells were treated with PBS containing 1% filter-sterilised BSA (1% BSA/PBS; 200 μl) at ambient temperature for 1 hour and subsequently washed 3 times with 300 μl per well of PBST.
The tissue culture plates with frozen cell lysate were allowed to warm to 0° C. Aliquots (100 μl) of the HUVEC cell lysate were added and the ELISA plates were agitated at ambient temperature for 3 hours. The wells were washed 3 times with 300 μl per well of PBST. […] Aliquots (100 μl) of the resultant dilution were added to each well and the plates were agitated at ambient temperature for 2 hours. The plates were washed 4 times with 300 μl per well of PBST. […] Aliquots (50 μl) of chemiluminescent substrate solution were added to each of the wells, the plates were agitated for 2 minutes and luminescence was read on a SpectraFluor is Plus plate reader (Tecan UK Ltd.). The resultant data were analysed to determine the IC50 value of each test compound.

| Compound | IC50 (PDGFRβ) [µM] | IC50 (KDR (VEGFR2)) [µM] | inhibition of growth of glioblastoma tumours [1] | inhibition of in vivo growth of dermatofibrosarcoma protruberans cell cultures [2] | inhibition of PDGF receptor kinase activity (PDGF receptor kinase) |
| --- | --- | --- | --- | --- | --- |
| Cc1ccc(NC(=O)c2ccc(CN3CCN(C)CC3)cc2)cc1Nc1nccc(-c2cccnc2)n1 [imatinib] |  |  | inhibits the growth of glioblastoma tumours | inhibits the in vivo growth of dermatofibrosarcoma protruberans cell cultures | shown to inhibit PDGF receptor kinase activity |
| CCn1cc(NC(=O)Cc2ccc(Oc3ccnc4cc(OC)c(C#N)cc34)cc2)cn1 [N-(1-ethyl-1H-pyrazol-4-yl)-2-[4-(6-cyano-7-methoxyquinolin-4-yloxy)phenyl]acetamide] | ~0.002 | ~0.2 |  |  |  |
| CNC(=O)c1cc2c(Oc3ccc(CC(=O)Nc4noc(C)c4C)c(OC)c3)ccnc2cc1OC [N-(4,5-dimethylisoxazol-3-yl)-2-{2-methoxy-4-[7-methoxy-6-(N-methylcarbamoyl)quinolin-4-yloxy]phenyl}acetamide] | ~0.005 | ~1 |  |  |  |
| CCn1cc(NC(=O)Cc2ccc(Oc3ccnc4cc(OC)c(C(=O)N(C)C)cc34)cc2)cn1 [N-(1-ethyl-1H-pyrazol-4-yl)-2-{4-[6-(N,N-dimethylcarbamoyl)-7-methoxyquinolin-4-yloxy]phenyl}acetamide] | ~0.003 | ~0.7 |  |  |  |

Further lines, with some results ahead:

| IC50 (PDGFRβ) [µM] | IC50 (KDR (VEGFR2)) [µM] | Compound | inhibition of growth of glioblastoma tumours [1] | inhibition of in vivo growth of dermatofibrosarcoma protruberans cell cultures [2] | inhibition of PDGF receptor kinase activity (PDGF receptor kinase) |
| --- | --- | --- | --- | --- | --- |
| ~0.005 | > 2 | CCc1c[nH]nc1NC(=O)Cc1ccc(Oc2ccnc3cc(OC)c(OC)cc23)cc1OC [N-(4-ethyl-1H-pyrazol-3-yl)-2-[4-(6,7-dimethoxyquinolin-4-yloxy)-2-methoxyphenyl]acetamide] |  |  |  |
| ~0.01 | > 2 | COc1cc(Oc2ccnc3ccc(F)cc23)ccc1CC(=O)Nc1n[nH]c(C)c1C [N-(4,5-dimethyl-1H-pyrazol-3-yl)-2-[4-(6-fluoroquinolin-4-yloxy)-2-methoxyphenyl]acetamide] |  |  |  |
| ~0.02 | > 1 | CCn1cc(NC(=O)Cc2ccc(Oc3ccnc4ccccc34)cc2OC)cn1 [N-(1-ethyl-1H-pyrazol-4-yl)-2-(2-methoxy-4-quinolin-4-yloxyphenyl)acetamide] |  |  |  |
| ~0.002 | ~0.75 | CCn1cc(NC(=O)Cc2ccc(Oc3ccnc4cc(OC)c(C#N)cc34)cc2OC)cn1 [N-(1-ethyl-1H-pyrazol-4-yl)-2-[4-(6-cyano-7-methoxyquinolin-4-yloxy)-2-methoxyphenyl]acetamide] |  |  |  |
| ~0.01 | > 2 | COc1cc(Oc2ccnc3ccc(F)cc23)ccc1CC(=O)Nc1cc(C)[nH]n1 [N-(5-methyl-1H-pyrazol-3-yl)-2-[4-(6-fluoroquinolin-4-yloxy)-2-methoxyphenyl]acetamide] |  |  |  |
